According to patent publication US20020164266A1, “Microbicidal mixtures” (priority 2001, published 2002):

Columns and labels:
Assay type in all cases: cell-based
Bacillus subtilis = experiment: Synergism (BNPD/MIT), MIC values for Bacillus subtilis; conditions: read-out: MIC values for Bacillus subtilis
Source text: (§1) The mixtures according to the invention have synergistic activity. The observed synergism can be determined by the following mathematical equation (see F. C. Kull, P. C. Elisman, H. D. Sylwestrowicz and P. K. Mayer, Appl. Microbiol. 9, 538 (1961): [formula]
(§2) Qa=the amount of component A in the active compound mixture which achieves the desired effect, i.e. no microbial growth.
(§3) QA=the amount of component A which, when used on its own, suppresses the growth of the microorganisms.
(§4) Qb=the amount of component B in the active compound mixture which suppresses the growth of the micoorganisms.
(§5) QB=the amount of component B which, when used on its own, suppresses the growth of the microorganisms.
(§6) A synergistic index of SI<1 indicates a synergistic effect for the mixture in question. […] All parts and percentages are by weight unless otherwise indicated.
Test pathogen: Bacillus subtilis
(§7) In brackets=mixing ratios of the pure active compounds

Pseudomonas fluorescens = experiment: Synergism (BNPD/MIT), MIC values for Pseudomonas fluorescens; conditions: read-out: MIC values for Pseudomonas fluorescens
Source text: as §1, §2, §3, §4, §5, §6
Test pathogen: Pseudomonas fluorescens
as §7

Pseudomonas aeruginosa = experiment: Synergism (BNPD/MIT), MIC values for Pseudomonas aeruginosa; conditions: read-out: MIC values for Pseudomonas aeruginosa
Source text: as §1, §2, §3, §4, §5, §6
Test pathogen: Pseudomonas aeruginosa
as §7

SMILES | MIC (Bacillus subtilis) [µg/mL] | MIC (Pseudomonas fluorescens) [µg/mL] | MIC (Pseudomonas aeruginosa) [µg/mL]
O=[N+]([O-])C(Br)(CO)CO [BNPD, 2-bromo-2-nitropropanediol] | 10 | 10 | 10
Cn1sccc1=O [MIT, 2-methyl-2H-isothiazol-3-one] | 25 | 10 | 10
